Measurements taken from patent US20100003250A1, “(2-ARYL-7H-PYRROLO[2,3-D]PYRIMIDIN-4-YL)MORPHOLINE COMPOUNDS, THEIR USE AS MTOR KINASE AND PI3 KINASE INHIBITORS, AND THEIR SYNTHESES” (Wyeth, priority 2008, published 2010).

Tests used:
Assay type in all cases: biochemical
[1] = biological target: PI3Kα (Homo sapiens, UniProt P42336); test: PI3K-alpha fluorescence polarization assay; conditions: 20 μM PIP2, 25 μM ATP; read-out: PI3Kα Median IC50
[2] = biological target: PI3Kγ (Homo sapiens, UniProt P48736); test: PI3K-gamma fluorescence polarization assay; conditions: 20 μM PIP2, 25 μM ATP; read-out: PI3Kγ Median IC50
PI3Kγ, sequence (P48736 whole entry, species assumed): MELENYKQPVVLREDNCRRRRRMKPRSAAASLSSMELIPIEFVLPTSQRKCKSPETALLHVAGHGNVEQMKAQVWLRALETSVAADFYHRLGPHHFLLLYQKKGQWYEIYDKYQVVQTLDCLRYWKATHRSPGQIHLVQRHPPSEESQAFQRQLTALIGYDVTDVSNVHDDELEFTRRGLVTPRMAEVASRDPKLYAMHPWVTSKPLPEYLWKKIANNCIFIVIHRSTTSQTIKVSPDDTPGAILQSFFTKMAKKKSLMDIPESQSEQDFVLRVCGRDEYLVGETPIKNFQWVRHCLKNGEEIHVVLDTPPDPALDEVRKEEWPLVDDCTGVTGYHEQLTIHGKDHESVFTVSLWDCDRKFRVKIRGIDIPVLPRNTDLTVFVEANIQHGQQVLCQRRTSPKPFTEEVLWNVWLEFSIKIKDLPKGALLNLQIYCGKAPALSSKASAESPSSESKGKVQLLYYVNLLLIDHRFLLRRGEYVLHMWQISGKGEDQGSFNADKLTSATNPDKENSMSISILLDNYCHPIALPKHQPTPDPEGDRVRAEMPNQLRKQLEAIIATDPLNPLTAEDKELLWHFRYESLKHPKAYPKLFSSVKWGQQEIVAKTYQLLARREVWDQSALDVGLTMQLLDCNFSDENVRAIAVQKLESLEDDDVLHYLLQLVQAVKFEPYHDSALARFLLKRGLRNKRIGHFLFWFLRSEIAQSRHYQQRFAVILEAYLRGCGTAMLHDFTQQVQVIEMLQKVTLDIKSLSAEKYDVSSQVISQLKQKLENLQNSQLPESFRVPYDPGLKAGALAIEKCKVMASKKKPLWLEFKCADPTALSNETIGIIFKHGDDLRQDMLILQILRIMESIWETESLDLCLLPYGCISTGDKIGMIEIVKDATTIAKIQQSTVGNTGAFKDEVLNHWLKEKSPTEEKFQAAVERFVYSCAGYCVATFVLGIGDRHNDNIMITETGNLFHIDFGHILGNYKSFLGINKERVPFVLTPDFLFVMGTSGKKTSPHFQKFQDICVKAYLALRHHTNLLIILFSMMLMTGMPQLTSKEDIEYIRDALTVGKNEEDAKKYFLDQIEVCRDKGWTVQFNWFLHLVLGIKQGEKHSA
Outline: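 Enzyme preincubated with compound in 20 mM HEPES pH 7.5, 2 mM MgCl2, 0.05% CHAPS, 0.01% βME; reaction started with substrate giving 20 μM diC8 PIP2 and 25 μM ATP final, run 30-60 min at room temperature. Stopped with TAMRA-labelled PIP3 detector probe plus GST-GRP; PIP3 formation read by fluorescence polarization after 90-110 min.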

[3] = biological target: T1, mTOR Kinase (FLAG-TOR) (Homo sapiens, UniProt P42345); test: mTOR kinase assay, purified enzyme, DELFIA format; conditions: 100 μM ATP, 1.25 μM His6-S6K; read-out: mTOR Kinase Median IC50
T1 construct: FLAG

PI3Kα, sequence (P42336 whole entry, species assumed): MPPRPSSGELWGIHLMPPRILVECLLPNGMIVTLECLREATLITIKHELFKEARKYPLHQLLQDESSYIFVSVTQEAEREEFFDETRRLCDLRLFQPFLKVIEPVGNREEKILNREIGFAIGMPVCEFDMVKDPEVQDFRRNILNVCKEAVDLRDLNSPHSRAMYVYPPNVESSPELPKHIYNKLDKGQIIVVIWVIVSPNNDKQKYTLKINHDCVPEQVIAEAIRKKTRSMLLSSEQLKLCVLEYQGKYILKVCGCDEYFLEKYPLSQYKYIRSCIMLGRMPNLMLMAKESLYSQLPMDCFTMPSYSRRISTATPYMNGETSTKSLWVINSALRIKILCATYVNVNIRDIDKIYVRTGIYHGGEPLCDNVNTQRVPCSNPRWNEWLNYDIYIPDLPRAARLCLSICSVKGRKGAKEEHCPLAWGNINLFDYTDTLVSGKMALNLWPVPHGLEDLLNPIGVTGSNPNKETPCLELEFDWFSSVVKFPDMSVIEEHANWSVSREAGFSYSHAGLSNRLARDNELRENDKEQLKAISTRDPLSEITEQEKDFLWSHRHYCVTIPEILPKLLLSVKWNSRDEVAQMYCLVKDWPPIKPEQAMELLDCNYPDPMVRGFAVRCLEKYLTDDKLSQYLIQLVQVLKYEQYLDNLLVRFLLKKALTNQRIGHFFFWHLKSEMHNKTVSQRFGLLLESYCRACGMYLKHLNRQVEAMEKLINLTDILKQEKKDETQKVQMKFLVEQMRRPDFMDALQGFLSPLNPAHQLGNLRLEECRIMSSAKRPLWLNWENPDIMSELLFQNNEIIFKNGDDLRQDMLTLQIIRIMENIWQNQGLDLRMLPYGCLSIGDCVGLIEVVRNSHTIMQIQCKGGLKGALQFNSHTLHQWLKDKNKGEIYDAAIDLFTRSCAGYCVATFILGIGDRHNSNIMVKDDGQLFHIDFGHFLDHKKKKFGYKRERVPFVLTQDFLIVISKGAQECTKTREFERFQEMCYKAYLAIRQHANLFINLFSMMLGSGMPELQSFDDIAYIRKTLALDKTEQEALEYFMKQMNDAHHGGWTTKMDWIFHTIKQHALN
PI3Kα, sequence (P27986 whole entry partner, species assumed): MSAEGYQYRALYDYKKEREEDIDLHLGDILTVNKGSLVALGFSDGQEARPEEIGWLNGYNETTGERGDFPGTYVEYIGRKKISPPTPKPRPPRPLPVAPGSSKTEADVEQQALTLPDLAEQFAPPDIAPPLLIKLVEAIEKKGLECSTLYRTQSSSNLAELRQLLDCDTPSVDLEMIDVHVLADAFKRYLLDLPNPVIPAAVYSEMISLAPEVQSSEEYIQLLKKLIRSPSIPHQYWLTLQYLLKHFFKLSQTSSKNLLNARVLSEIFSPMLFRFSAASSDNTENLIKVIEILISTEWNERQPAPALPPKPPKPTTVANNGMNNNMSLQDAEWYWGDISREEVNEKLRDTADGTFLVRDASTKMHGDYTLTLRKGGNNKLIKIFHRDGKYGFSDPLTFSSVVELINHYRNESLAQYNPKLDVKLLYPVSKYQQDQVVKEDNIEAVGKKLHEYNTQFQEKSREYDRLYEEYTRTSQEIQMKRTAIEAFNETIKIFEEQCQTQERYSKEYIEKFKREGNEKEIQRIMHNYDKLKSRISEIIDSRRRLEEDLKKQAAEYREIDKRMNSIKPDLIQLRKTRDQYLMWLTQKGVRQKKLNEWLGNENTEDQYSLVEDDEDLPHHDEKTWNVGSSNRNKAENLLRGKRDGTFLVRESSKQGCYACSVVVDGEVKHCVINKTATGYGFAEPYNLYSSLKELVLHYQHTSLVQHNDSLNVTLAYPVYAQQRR

| SMILES | IC50 [1] | IC50 [2] | IC50 [3] |
| --- | --- | --- | --- |
| CC1(C)CN(C(=O)c2ccc(NC(=O)Nc3ccc(-c4nc(N5CCOCC5)c5ccn(CC(F)(F)F)c5n4)cc3)cc2)CCN1 [Compound 55, 1-{4-[(3,3-dimethylpiperazin-1-yl)carbonyl]phenyl}-3-{4-[4-morpholin-4-yl-7-(2,2,2-trifluoroethyl)-7H-pyrrolo[2,3-d]pyrimidin-2-yl]phenyl}urea] | < 1.9 nM | 15 nM | 0.94 nM |
| CCn1ccc2c(N3CCOCC3)nc(-c3ccc(NC(=O)Nc4ccc(C(=O)N5CCNCC5)cc4)cc3)nc21 [Compound 67, 1-[4-(7-ethyl-4-morpholin-4-yl-7H-pyrrolo[2,3-d]pyrimidin-2-yl)phenyl]-3-[4-(piperazin-1-ylcarbonyl)phenyl]urea] | < 1.8 nM | 8 nM | 0.99 nM |
| CC(C)n1ccc2c(N3CCOCC3)nc(-c3ccc(NC(=O)Nc4ccc(C(=O)N5CCNCC5)cc4)cc3)nc21 [Compound 83, 1-[4-(7-isopropyl-4-morpholin-4-yl-7H-pyrrolo[2,3-d]pyrimidin-2-yl)phenyl]-3-[4-(piperazin-1-ylcarbonyl)phenyl]urea] | < 2.3 nM | 13 nM | 0.64 nM |
| O=C(Nc1ccc(C(=O)NCCN2CCCCC2)cc1)Nc1ccc(-c2nc(N3CCOCC3)c3ccn(CC(F)(F)F)c3n2)cc1 [Compound 56, 4-[({4-[4-morpholin-4-yl-7-(2,2,2-trifluoroethyl)-7H-pyrrolo[2,3-d]pyrimidin-2-yl]phenyl}carbamoyl)amino]-N-(2-piperidin-1-ylethyl)benzamide] | 2.6 nM | 40 nM | 0.53 nM |
| CC(C)n1ccc2c(N3CCOCC3)nc(-c3ccc(NC(=O)Nc4ccc(N5CCN(C)CC5)cc4)cc3)nc21 [Compound 80, 1-[4-(7-isopropyl-4-morpholin-4-yl-7H-pyrrolo[2,3-d]pyrimidin-2-yl)phenyl]-3-[4-(4-methylpiperazin-1-yl)phenyl]urea] | 47 nM | 135 nM | 2.8 nM |
| CC(C)(C)NCCn1ccc2c(N3CCOCC3)nc(-c3ccc(NC(=O)Nc4ccncc4)cc3)nc21 [Compound 31, 1-(4-{7-[2-(tert-butylamino)ethyl]-4-morpholin-4-yl-7H-pyrrolo[2,3-d]pyrimidin-2-yl}phenyl)-3-pyridin-4-ylurea] | 86 nM | 404 nM | 25.5 nM |
| CC(C)n1ccc2c(N3CCOCC3)nc(-c3ccc(NC(=O)Nc4ccc(C(=O)N5CCC(N(C)C)CC5)cc4)cc3)nc21 [Compound 84, 1-(4-{[4-(dimethylamino)piperidin-1-yl]carbonyl}phenyl)-3-[4-(7-isopropyl-4-morpholin-4-yl-7H-pyrrolo[2,3-d]pyrimidin-2-yl)phenyl]urea] | 4 nM | 38 nM | 0.8 nM |
| Nc1nc2cc(-c3nc(N4CCOCC4)c4ccn(CC(F)(F)F)c4n3)ccc2[nH]1 [Compound 45, 5-[4-morpholin-4-yl-7-(2,2,2-trifluoroethyl)-7H-pyrrolo[2,3-d]pyrimidin-2-yl]-1H-benzimidazol-2-amine] | 45 nM | 506 nM | 36.5 nM |
| CN(C)CCn1ccc2c(N3CCOCC3)nc(-c3ccc(NC(=O)NCCc4c[nH]c5ccccc45)cc3)nc21 [Compound 18, 1-(4-{7-[2-(dimethylamino)ethyl]-4-morpholin-4-yl-7H-pyrrolo[2,3-d]pyrimidin-2-yl}phenyl)-3-[2-(1H-indol-3-yl)ethyl]urea] | 1400 nM | 2180 nM | 102 nM |
| CCn1ccc2c(N3CCOCC3)nc(-c3ccc(NC(=O)Nc4ccc(C(=O)NCCN(C)C)cc4)cc3)nc21 [Compound 62, N-[2-(dimethylamino)ethyl]-4-({[4-(7-ethyl-4-morpholin-4-yl-7H-pyrrolo[2,3-d]pyrimidin-2-yl)phenyl]carbamoyl}amino)benzamide] | < 2.4 nM | 25 nM | 0.56 nM |
| O=C(Nc1cccnc1)Nc1nc2cc(-c3nc(N4CCOCC4)c4ccn(CC(F)(F)F)c4n3)ccc2[nH]1 [Compound 46, 1-{5-[4-morpholin-4-yl-7-(2,2,2-trifluoroethyl)-7H-pyrrolo[2,3-d]pyrimidin-2-yl]-1H-benzimidazol-2-yl}-3-pyridin-3-ylurea] | 14 nM | 104 nM | 3.4 nM |
| CCn1ccc2c(N3CCOCC3)nc(-c3ccc(NC(=O)Nc4ccc(C(=O)N5CCC(N6CCCCC6)CC5)cc4)cc3)nc21 [Compound 72, 1-[4-(1,4′-bipiperidin-1′-ylcarbonyl)phenyl]-3-[4-(7-ethyl-4-morpholin-4-yl-7H-pyrrolo[2,3-d]pyrimidin-2-yl)phenyl]urea] | 3.5 nM | 28 nM | 1.4 nM |
| COC(=O)c1ccc(NC(=O)Nc2ccc(-c3nc(N4CCOCC4)c4ccn(C(C)C)c4n3)cc2)cc1 [Compound 89, methyl 4-({[4-(7-isopropyl-4-morpholin-4-yl-7H-pyrrolo[2,3-d]pyrimidin-2-yl)phenyl]carbamoyl}amino)benzoate] | 116 nM | 511 nM | 4.8 nM |
| CCn1ccc2c(N3CCOCC3)nc(-c3ccc(NC(=O)Nc4ccc(C(=O)NCCN5CCCC5)cc4)cc3)nc21 [Compound 76, 4-({[4-(7-ethyl-4-morpholin-4-yl-7H-pyrrolo[2,3-d]pyrimidin-2-yl)phenyl]carbamoyl}amino)-N-(2-pyrrolidin-1-ylethyl)benzamide] | 2 nM | 38 nM | 0.72 nM |
| O=C(Nc1ccncc1)Nc1ccc(-c2nc(N3CCOCC3)c3ccn(CC4NC(=O)NC4=O)c3n2)cc1 (stereo not drawn) [Compound 35, 1-(4-{7-[(2,5-dioxoimidazolidin-4-yl)methyl]-4-morpholin-4-yl-7H-pyrrolo[2,3-d]pyrimidin-2-yl}phenyl)-3-pyridin-4-ylurea] | 12 nM | 100 nM | 1.55 nM |
| CC(C)n1ccc2c(N3CCOCC3)nc(-c3ccc(NC(=O)Nc4ccc(C(=O)NCCN(C)C)cc4)cc3)nc21 [Compound 86, N-[2-(dimethylamino)ethyl]-4-({[4-(7-isopropyl-4-morpholin-4-yl-7H-pyrrolo[2,3-d]pyrimidin-2-yl)phenyl]carbamoyl}amino)benzamide] | 1.7 nM | 50 nM | 0.38 nM |
| CCn1ccc2c(N3CCOCC3)nc(-c3ccc(NC(=O)Nc4ccc(C(=O)N5CCN(C6CCCC6)CC5)cc4)cc3)nc21 [Compound 73, 1-{4-[(4-cyclopentylpiperazin-1-yl)carbonyl]phenyl}-3-[4-(7-ethyl-4-morpholin-4-yl-7H-pyrrolo[2,3-d]pyrimidin-2-yl)phenyl]urea] | 6.5 nM | 35 nM | 3.35 nM |
| CCn1ccc2c(N3CCOCC3)nc(-c3ccc(NC(=O)NC)cc3)nc21 [Compound 96, 1-[4-(7-ethyl-4-morpholin-4-yl-7H-pyrrolo[2,3-d]pyrimidin-2-yl)phenyl]-3-methylurea] | 140 nM | 1540 nM | 4.9 nM |
| NC(=O)Nc1cccc(Cn2ccc3c(N4CCOCC4)nc(-c4ccc(NC(=O)Nc5ccncc5)cc4)nc32)c1 [Compound 20, 1-(4-{7-[3-(carbamoylamino)benzyl]-4-morpholin-4-yl-7H-pyrrolo[2,3-d]pyrimidin-2-yl}phenyl)-3-pyridin-4-ylurea] | 61 nM | 196 nM | 3.5 nM |
